This note sets out measurements from patent US20250163052A1, “cGAS INHIBITORS AND USES THEREOF” (Cornell University, priority 2022, published 2025).

Data set [1] deals with THP1 cells. In words: THP1-Dual cells, cell viability (CellTiter-Glo). In kind it is cell-based. Here is the method:
(§1) Evaluation of active cGAS inhibitors in THP1 cells (Table 3). Cellular activity of all compounds (in Table 3) was determined using THP1-Dual™ cells as described (Lama et. al., 2019). THP1-Dual™ cells (Invivogen) (50000 cells in 100 μl media) were seeded into each well of a 96-well plate and treated with compounds at various dilution for 4 hours. Subsequently, cells were transfected with DNA (2 ug/ml) and lipofectamine and incubate the cells were incubated overnight. Ifnb expression was measured in cell supernatant using Quantiluc, nfkb expression was determined using Quantiblue, and cell viability using Promega® CellTiter-Glo®.
(In general: ATP-based viability assays read luminescence as a measure of living cells.)

Data set [2] concerns IFNB. In words: THP1-Dual cells transfected with DNA, Ifnb expression (Quantiluc). It is filed as cell-based. The conditions noted are these: Homo sapiens; for inhibition at 10 µM: THP-1, 10 μM; for inhibition at 30 µM: THP-1, 30 μM. Here is the method:
as §1

Data set [3] relates to NFkB-SEAP. In words: THP1-Dual cells transfected with DNA, nfkb expression (Quantiblue). In kind it is cell-based. The conditions noted are these: Homo sapiens; for inhibition at 10 µM: THP-1, 10 μM; for inhibition at 30 µM: THP-1, 30 μM. Here is the method:
as §1

Data set [4] has as its target h-cGAS (Homo sapiens, UniProt Q8N884). In words: Cell-free human cGAS enzyme inhibition assay (ATP depletion, Kinase-Glo Max). In kind it is biochemical. The conditions noted are these: 3 h; for inhibition at 1 µM: read-out: h-cGAS, conc. 1 μM; for inhibition at 10 µM: read-out: h-cGAS, conc. 10 μM. The protocol: (§2) Cell-free mouse and human cGAS enzyme inhibition assay (Table 2). Activity of all compounds (in Table 1) against m-cGAS (30 nM) and or h-cGAS, (100 nM) was determined by measuring the conversion of ATP and GTP (100 μM each) to cGAMP in the presence of dsDNA (5 ug/mL) in a reaction buffer composed of Tris-HCl (20 mM, pH7.4), NaCl (150 mM), MnCl2 (0.2 mM, h-cGAS) or MgCl2 (5 mM, m-cGAS) and Tween-20 (0.01%), and the remaining ATP concentration using Kinase-Glo®Max Luminescent Kinase Assay (Promega, Madison, WI), as described (Lama, et. al., 2019). Briefly, 10 μl of a master mix of 0.4 mM ATP, 0.4 mM GTP, 0.02 mg/mL dsDNA in the reaction buffer supplemented with 2 mM DTT was added to reaction wells containing TDI-6570 or TDI-8246 (2× of the desired concentration) in the same buffer ([…]) using a Thermo 8-channel Multidrop Combi dispenser. Next, 10 μl of a 4×m-cGAS (0.120 μM) or h-cGAS (0.4 μM) solution in the reaction buffer supplemented with 2 mM DTT was added to appropriate wells. Similar sets of reactions without cGAS or the inhibitor was set by adding the buffer alone. The reactions with the plates sealed were incubated at 37° C. (1 hour for m-cGAS and 3 hours for h-cGAS) and stopped by addition of 40 μl of the Kinase-Glo®Max. The luminescence was recorded in relative light units (RLUs) using a Biotek Synergy H1 Hybrid plate reader (BioTek, Winooski, VT). […] All reactions were run in triplicates and calculated using GraphPad Prism 9. The values represent mean IC50±S.D.

For data set [5], the target named is m-cGAS (Mus musculus, UniProt Q8C6L5). In words: Cell-free mouse cGAS enzyme inhibition assay (ATP depletion, Kinase-Glo Max). It is filed as biochemical. Conditions: 1 h; for inhibition at 10 µM: read-out: m-cGAS, conc. 10 μM; for inhibition at 1 µM: read-out: m-cGAS, conc. 1 μM. The protocol:
as §2
In general terms: Kinase-Glo measures the ATP left after a reaction by luminescence.

Chain of h-cGAS (Q8N884 whole entry): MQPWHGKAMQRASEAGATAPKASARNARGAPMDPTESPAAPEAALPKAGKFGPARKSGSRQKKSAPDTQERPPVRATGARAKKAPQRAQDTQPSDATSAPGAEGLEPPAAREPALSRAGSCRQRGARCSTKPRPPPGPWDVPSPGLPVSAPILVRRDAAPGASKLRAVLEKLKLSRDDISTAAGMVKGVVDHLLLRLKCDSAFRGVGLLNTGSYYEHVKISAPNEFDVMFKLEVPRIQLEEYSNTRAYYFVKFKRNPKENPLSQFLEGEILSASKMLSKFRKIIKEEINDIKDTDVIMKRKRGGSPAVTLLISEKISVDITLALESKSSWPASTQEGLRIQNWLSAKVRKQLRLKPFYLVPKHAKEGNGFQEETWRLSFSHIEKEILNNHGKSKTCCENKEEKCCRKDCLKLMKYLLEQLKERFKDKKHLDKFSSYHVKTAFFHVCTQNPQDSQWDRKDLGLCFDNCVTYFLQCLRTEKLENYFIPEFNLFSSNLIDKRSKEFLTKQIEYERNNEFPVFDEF
Chain of m-cGAS (Q8C6L5 whole entry): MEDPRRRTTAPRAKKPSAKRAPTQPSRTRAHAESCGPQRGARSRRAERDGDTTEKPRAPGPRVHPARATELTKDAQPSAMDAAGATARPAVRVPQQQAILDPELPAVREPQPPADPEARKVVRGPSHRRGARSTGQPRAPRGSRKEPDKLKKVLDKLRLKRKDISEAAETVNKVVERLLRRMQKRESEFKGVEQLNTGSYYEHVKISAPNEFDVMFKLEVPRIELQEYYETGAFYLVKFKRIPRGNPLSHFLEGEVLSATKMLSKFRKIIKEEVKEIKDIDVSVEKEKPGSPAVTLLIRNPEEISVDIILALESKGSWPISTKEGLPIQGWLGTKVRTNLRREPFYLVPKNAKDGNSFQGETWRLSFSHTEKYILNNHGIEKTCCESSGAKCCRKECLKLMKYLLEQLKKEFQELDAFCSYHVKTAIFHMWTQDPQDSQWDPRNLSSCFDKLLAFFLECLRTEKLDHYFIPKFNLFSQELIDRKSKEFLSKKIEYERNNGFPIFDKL

Consider `CNc1ccc(-c2cc(Cl)c(Cl)c3sc4c(c23)CCN(C(=O)CN)C4)cn1` [Compound 76], for which, in data set [1], the “Cell viability 10 μM” value is “+++ (+, ++, and +++ mean the compound respectively shows 25-49%; 50-74%; or 75-100% viability to cells)”; the “Cell viability 30 μM” value was “+++ (+, ++, and +++ mean the compound respectively shows 25-49%; 50-74%; or 75-100% viability to cells)”. In data set [2], this molecule came in with an inhibition at 10 µM of 75 to 100% and an inhibition at 30 µM of 75 to 100%. Also, in data set [3], the inhibition at 10 µM is under 24% and the inhibition at 30 µM was 75 to 100%. For the same molecule, in data set [4], the inhibition at 1 µM lay within 0 to 24% and the inhibition at 10 µM was in the range of 50 to 74%. In addition, the inhibition at 10 µM in data set [5] lay within 75 to 100%.

Regarding `CNc1cnn(-c2cc(Cl)c(Cl)c3sc4c(c23)CCN(C(=O)CN)C4)c1` [Compound 95], the “Cell viability 10 μM” value in data set [1] was “+++ (+, ++, and +++ mean the compound respectively shows 25-49%; 50-74%; or 75-100% viability to cells)”. In addition, in data set [1], the “Cell viability 30 μM” value was “+++ (+, ++, and +++ mean the compound respectively shows 25-49%; 50-74%; or 75-100% viability to cells)”. Moreover, the inhibition at 10 µM in data set [2] is under 24%; in data set [3], 25 to 49%; in data set [4], 50 to 74%; in data set [5], 50 to 74%. Moreover, the inhibition at 30 µM in data set [2] and in data set [3] was 25 to 49% each time.

Take `Cn1cc(-c2cc(Cl)c(Cl)c3c2c2c(n3C)CCN(C(=O)CNC(=O)OC(C)(C)C)C2)cn1` [Compound 10]: the “Cell viability 10 μM” value in data set [1] was “+++ (+, ++, and +++ mean the compound respectively shows 25-49%; 50-74%; or 75-100% viability to cells)”. Further, the “Cell viability 30 μM” value in data set [1] is “+++ (+, ++, and +++ mean the compound respectively shows 25-49%; 50-74%; or 75-100% viability to cells)”. The inhibition at 10 µM in data set [2] was under 24%; in data set [3], under 24%; in data set [4] it was 75 to 100%; in data set [5], 0 to 24%. Also, the inhibition at 30 µM lay in the range of 75 to 100% in data set [2] and 50 to 74% in data set [3].

In the case of `NCC(=O)N1CCc2c(sc3c(Cl)c(Cl)cc(-c4cccnc4)c23)C1` [Compound 78], the “Cell viability 10 μM” value in data set [1] was “+ (+, ++, and +++ mean the compound respectively shows 25-49%; 50-74%; or 75-100% viability to cells)”. Besides, the “Cell viability 30 μM” value in data set [1] is “− (Cell viability <24%, in THP1 cells is expressed as “−”)”. Besides, the inhibition at 10 µM lay within 75 to 100% in data set [2], 50 to 74% in data set [3], 50 to 74% in data set [4] and 75 to 100% in data set [5]. Also, the inhibition at 30 µM in data set [2] and in data set [3] was 75 to 100% throughout. Moreover, the inhibition at 1 µM fell in the range of 0 to 24% in data set [4] and 25 to 49% in data set [5].

On to `Cn1cnc(-c2cc(Cl)c(Cl)c3sc4c(c23)CCN(C(=O)CN)C4)c1` [Compound 93], for which, in data set [1], the “Cell viability 10 μM” value was “+++ (+, ++, and +++ mean the compound respectively shows 25-49%; 50-74%; or 75-100% viability to cells)”; the “Cell viability 30 μM” value is recorded as “− (Cell viability <24%, in THP1 cells is expressed as “−”)”. In data set [2], this molecule showed an inhibition at 10 µM of under 24% and an inhibition at 30 µM of 75 to 100%. For the same molecule, in data set [3], the inhibition at 10 µM is under 24% and the inhibition at 30 µM lay within 50 to 74%. In data set [4], the inhibition at 1 µM fell in the range of 0 to 24% and the inhibition at 10 µM is 50 to 74%. In data set [5], the inhibition at 1 µM lay in the range of 0 to 24% and the inhibition at 10 µM was 50 to 74%.

Consider `NCC(=O)N1CCc2sc3c(Cl)c(Cl)cc(-c4cncnc4)c3c2C1` [Compound 53], for which, in data set [1], the “Cell viability 10 μM” value is “+++ (+, ++, and +++ mean the compound respectively shows 25-49%; 50-74%; or 75-100% viability to cells)”; the “Cell viability 30 μM” value is reported as “− (Cell viability <24%, in THP1 cells is expressed as “−”)”. Moreover, in data set [2], the inhibition at 10 µM is under 24% and the inhibition at 30 µM lay in the range of 75 to 100%. Also, in data set [3], the inhibition at 10 µM was 25 to 49% and the inhibition at 30 µM is 50 to 74%. Moreover, in data set [4], the inhibition at 1 µM fell in the range of 0 to 24% and the inhibition at 10 µM fell in the range of 50 to 74%. Further, in data set [5], the inhibition at 1 µM was in the range of 0 to 24% and the inhibition at 10 µM was 75 to 100%.

Take `NCC(=O)N1CCc2c(sc3c(Cl)c(Cl)cc(-c4ncccn4)c23)C1` [Compound 89]: in data set [1], the “Cell viability 10 μM” value is “+++ (+, ++, and +++ mean the compound respectively shows 25-49%; 50-74%; or 75-100% viability to cells)”; the “Cell viability 30 μM” value is “++ (+, ++, and +++ mean the compound respectively shows 25-49%; 50-74%; or 75-100% viability to cells)”. For the same molecule, in data set [2], the inhibition at 10 µM was under 24% and the inhibition at 30 µM lay within 50 to 74%. In data set [3], this molecule displayed an inhibition at 10 µM of under 24% and an inhibition at 30 µM of 50 to 74%. For the same molecule, in data set [4], the inhibition at 1 µM lay within 0 to 24% and the inhibition at 10 µM was 50 to 74%. Also, in data set [5], the inhibition at 1 µM fell in the range of 0 to 24% and the inhibition at 10 µM lay within 25 to 49%.

Consider `CN1c2c(Cl)c(Cl)cc(-c3cnn(C)c3)c2C2CN(C(=O)CN)CCC21` (stereo not drawn) [Compound 12], for which, in data set [1], the “Cell viability 10 μM” value was “+++ (+, ++, and +++ mean the compound respectively shows 25-49%; 50-74%; or 75-100% viability to cells)”. Further, the inhibition at 10 µM is under 24% in data set [2], under 24% in data set [3], 75 to 100% in data set [4] and 0 to 24% in data set [5]. Besides, the inhibition at 1 µM in data set [4] is 0 to 24%.

Turning to `NCC(=O)N1CCc2c(sc3c(Cl)c(Cl)cc(-c4cnccn4)c23)C1` [Compound 90], in data set [1], the “Cell viability 10 μM” value was “+++ (+, ++, and +++ mean the compound respectively shows 25-49%; 50-74%; or 75-100% viability to cells)”; the “Cell viability 30 μM” value is reported as “− (Cell viability <24%, in THP1 cells is expressed as “−”)”. In addition, in data set [2], the inhibition at 10 µM lay in the range of 25 to 49% and the inhibition at 30 µM lay within 50 to 74%. Further, in data set [3], the inhibition at 10 µM lay within 25 to 49% and the inhibition at 30 µM was in the range of 75 to 100%. Besides, in data set [4], the inhibition at 1 µM lay in the range of 0 to 24% and the inhibition at 10 µM lay in the range of 50 to 74%. For the same molecule, in data set [5], the inhibition at 1 µM lay in the range of 25 to 49% and the inhibition at 10 µM lay in the range of 50 to 74%.

With `Cn1ccc(-c2cc(Cl)c(Cl)c3c2c2c(n3C)CCN(C(=O)C(C)(C)O)C2)n1` [Compound 5], in data set [1], the “Cell viability 10 μM” value is “+++ (+, ++, and +++ mean the compound respectively shows 25-49%; 50-74%; or 75-100% viability to cells)”; the “Cell viability 30 μM” value is “+++ (+, ++, and +++ mean the compound respectively shows 25-49%; 50-74%; or 75-100% viability to cells)”. Further, in data set [2], the inhibition at 10 µM is under 24% and the inhibition at 30 µM is under 24%. In data set [3], this molecule registered an inhibition at 10 µM of under 24% and an inhibition at 30 µM of under 24%. In data set [4], the inhibition at 1 µM was in the range of 25 to 49% and the inhibition at 10 µM lay in the range of 75 to 100%. The inhibition at 10 µM in data set [5] fell in the range of 0 to 24%.

For the molecule `Cc1ccn(-c2cc(Cl)c(Cl)c3sc4c(c23)CCN(C(=O)CN)C4)n1` [Compound 96], in data set [1], the “Cell viability 10 μM” value is “+++ (+, ++, and +++ mean the compound respectively shows 25-49%; 50-74%; or 75-100% viability to cells)”; the “Cell viability 30 μM” value is “+++ (+, ++, and +++ mean the compound respectively shows 25-49%; 50-74%; or 75-100% viability to cells)”. In data set [2], this molecule gave an inhibition at 10 µM of under 24% and an inhibition at 30 µM of under 24%. Also, in data set [3], the inhibition at 10 µM was under 24% and the inhibition at 30 µM was under 24%. Further, in data set [4], the inhibition at 1 µM was in the range of 0 to 24% and the inhibition at 10 µM lay in the range of 25 to 49%. The inhibition at 10 µM in data set [5] fell in the range of 25 to 49%.
